Experiments:
Alopecurus HPPD = assay: HPPD activity assay, Alopecurus HPPD; type: biochemical; settings: normalized on Arabidopsis wild-type HPPD
Description: (§1) HPPD produces homogentisic acid and CO2 from 4-hydroxyphenylpyruvate (4-HPP) and O2. The activity assay for HPPD is based on the analysis of homogentisic acid by reversed phase HPLC.
(§2) The assay mixture can contain 150 mM potassium phosphate buffer pH 7.0, 50 mM L-ascorbic acid, 1 μM FeSO4 and 7 μg of purified enzyme in a total volume of 1 ml.
(§3) Inhibitors are dissolved in DMSO (dimethylsulfoxide) to a concentration of 20 mM or 0.5 mM, respectively. From this stock solution serial five-fold dilutions are prepared in DMSO, which are used in the assay. The respective inhibitor solution accounts for 1% of the assay volume. Thus, final inhibitor concentrations range from 200 μM to 2.5 nM or from 5 μM to 63 pM, respectively. After a preincubation of 30 min the reaction is started by adding 4-HPP to a final concentration of 0.1 mM. The reaction is allowed to proceed for 120 min at room temperature. The reaction is stopped by addition of 100 μl of 4.5 M phosphoric acid.
(§4) Activities are normalized by setting the uninhibited enzyme activity to 100%. IC50 values are calculated using non-linear regression.
(§5) The assay mixture can contain 150 mM potassium phosphate buffer pH 7.0, 50 mM L-ascorbic acid, 100 μM Catalase (Sigma-Aldrich), 1 μM FeSO4 and 0.2 units of purified HPPD enzyme in a total volume of 505 μl. […]
(§6) Inhibitors are dissolved in DMSO (dimethylsulfoxide) to a concentration of 0.5 mM. […] IC50 values are calculated using non-linear regression.
(§7) Using methods which are described in the above examples or well known in the art, purified, recombinant wildtype HPPD enzymes are characterized with respect to their kinetic properties and sensitivity towards HPPD inhibiting herbicides. Apparent michaelis constants (Km) and maximal reaction velocities (Vmax) are calculated by non-linear regression with the software GraphPad Prism 5 (GraphPad Software, La Jolla, USA) using a substrate inhibition model. […] Weighted means (by standard error) of Km and […] values are calculated from at least three independent experiments. […]

Poa HPPD = assay: HPPD activity assay, Poa HPPD; type: biochemical; settings: normalized on Arabidopsis wild-type HPPD
Description: as §1, §2, §3, §4, §5, §6, §7

Kordia HPPD = assay: HPPD activity assay, Kordia HPPD; type: biochemical; settings: normalized on Arabidopsis wild-type HPPD
Description: as §1, §2
(§8) Inhibitors are dissolved in DMSO (dimethylsulfoxide) to a concentration of 20 mM or 0.5 mM, respectively. From this stock solution serial five-fold dilutions are prepared in DMSO, which are used in the assay. The respective inhibitor solution accounts for 1% of the assay volume. […]
(§9) Activities are normalized by setting the uninhibited enzyme activity to 100%. IC50 values are calculated using non-linear regression. […]
as §6
(§10) Using methods which are described in the above examples or well known in the art, purified, recombinant wildtype HPPD enzymes are characterized with respect to their kinetic properties and sensitivity towards HPPD inhibiting herbicides. Apparent michaelis constants (Km) and maximal reaction velocities (Vmax) are calculated by non-linear regression with the software GraphPad Prism 5 (GraphPad Software, La Jolla, USA) using a substrate inhibition model. […]

Rhodococcus HPPD1 = assay: HPPD activity assay, Rhodococcus HPPD1; type: biochemical; settings: normalized on Arabidopsis wild-type HPPD
Description: as §1, §2, §8, §9, §6, §10

[1] = test system: transgenic soybean plants, Arabidopsis M335H, event SDS-9977; assay: Greenhouse testing of transgenic soybean plants, Arabidopsis M335H; type: in vivo, Glycine max; settings: soybean SDS-9977, 5 days after herbicide treatment, average of 8 T1
From the text: Various methods for the production of stably transformed plants are well known in the art. Coumarone-derivative herbicide tolerant soybean (Glycine max) or corn (Zea mays) plants can be produced by a method described by Olhoft et al. (US patent 2009/0049567). Briefly, HPPD or HST encoding polynucleotides are cloned into a binary vector using standard cloning techniques as described by Sambrook et al. (Molecular cloning (2001) Cold Spring Harbor Laboratory Press). The final vector construct contains an HPPD or HST encoding sequence flanked by a promoter sequence (e.g. the ubiquitin promoter (PcUbi) sequence) and a terminator sequence (e.g. the nopaline synthase terminator (NOS) sequence) and a resistance marker gene cassette (e.g. AHAS) (FIG. 2). Optionally, the HPPD or HST gene can provide the means of selection. Agrobacterium-mediated transformation is used to introduce the DNA into soybean's axillary meristem cells at the primary node of seedling explants. After inoculation and co-cultivation with Agrobacteria, the explants are transferred to shoot induction medium without selection for one week. The explants are subsequently transferred to shoot induction medium with 1-3 μM imazapyr (Arsenal) for 3 weeks to select for transformed cells. Explants with healthy callus/shoot pads at the primary node are then transferred to shoot elongation medium containing 1-3 μM imazapyr until a shoot elongates or the explant dies. After regeneration, transformants are transplanted to soil in small pots, placed in growth chambers (16 hr day/8 hr night; 25° C. day/23° C. night; 65% relative humidity; 130-150 mE m−2 s−1) and subsequently tested for the presence of the T-DNA via Taqman analysis. After a few weeks, healthy, transgenic positive, single copy events are transplanted to larger pots and allowed to grow in the growth chamber. Transformation of corn plants is done by a method described by McElver and Singh (WO 2008/124495). Plant transformation vector constructs containing HPPD or HST sequences are introduced into maize immature embryos via Agrobacterium-mediated transformation. Transformed cells are selected in selection media supplemented with 0.5-1.5 μM imazethapyr for 3-4 weeks. Transgenic plantlets are regenerated on plant regeneration media and rooted afterwards. Transgenic plantlets are subjected to TaqMan analysis for the presence of the transgene before being transplanted to potting mixture and grown to maturity in greenhouse. Arabidopsis thaliana is transformed with HPPD or HST sequences by floral dip method as described by McElver and Singh (WO 2008/124495). Transgenic Arabidopsis plants are subjected to Tag Man analysis for analysis of the number of integration loci. Transformation of Oryza sativa (rice) are done by protoplast transformation as described by Peng et al. (U.S. Pat. No. 6,653,529)
Transgenic plants expressing heterologous HPPD or HST enzymes are tested for tolerance against coumarone-derivative herbicides in greenhouse experiments.
For post emergence treatment, the test plants are first grown to a height of 3 to 15 cm, depending on the plant habit, and only then treated with the herbicides. For this purpose, the test plants are either sown directly and grown in the same containers, or they are first grown separately and transplanted into the test containers a few days prior to treatment.
Depending on the species, the plants are kept at 10-25° C. or 20-35° C. The test period extends over 3 weeks. During this time, the plants are tended and their response to the individual treatments is evaluated. […] Tolerance to coumarone-derivative herbicides can also be assessed in Arabidopsis. In this case transgenic Arabidopsis thaliana plants are assayed for improved tolerance to coumarone-derivative herbicides in 48-well plates. Seeds are surface sterilized by stirring for 5 min in ethanol+water (70+30 by volume), rinsing one time with ethanol+water (70+30 by volume) and two times with a sterile, deionized water. […]

| SMILES | Normalized tolerance index TI (Alopecurus HPPD) | Normalized tolerance index TI (Poa HPPD) | Normalized tolerance index TI (Kordia HPPD) | Normalized tolerance index TI (Rhodococcus HPPD1) | Injury evaluation, scale of 1-100, bleaching phenotype ([1]; 2.5 g/ha) | Injury evaluation, scale of 1-100, bleaching phenotype ([1]; 10 g/ha) | Injury evaluation, scale of 1-100, bleaching phenotype ([1]; 40 g/ha) | Injury evaluation, scale of 1-100, bleaching phenotype ([1]; 6.25 g/ha) | Injury evaluation, scale of 1-100, bleaching phenotype ([1]; 25 g/ha) | Injury evaluation, scale of 1-100, bleaching phenotype ([1]; 100 g/ha) |
| --- | --- | --- | --- | --- | --- | --- | --- | --- | --- | --- |
| CC1=NOC(c2c(Cl)ccc(C3=C(O)c4ncccc4C(C)(C)S3(=O)=O)c2Cl)C1 (centres unmarked) [Inhibitor 1, 7-[2,4-dichloro-3-(3-methyl-4,5-dihydroisoxazol-5-yl)phenyl]-5,5-dimethyl-6,6-dioxo-thiopyrano[4,3-b]pyridin-8-ol] | 2.5 | 2.1 | 22 | 39 | – | – | – | – | – | – |
| CC1(C)c2cccnc2C(O)=C(c2ccc(Cl)nc2Cl)S1(=O)=O [Inhibitor 2, 7-(2,6-dichloro-3-pyridyl)-5,5-dimethyl-6,6-dioxo-thiopyrano[4,3-b]pyridin-8-ol] | 1.4 | 1.1 | – | – | 1 | 1 | 5 | – | – | – |
| COCCOCc1c(Cl)ccc(C2=C(O)c3ncccc3C(C)(C)S2(=O)=O)c1Cl [Inhibitor 3, 7-[2,4-dichloro-3-(2-methoxyethoxymethyl)phenyl]-5,5-dimethyl-6,6-dioxo-thiopyrano[4,3-b]pyridin-8-ol] | – | – | 0.7 | 1.6 | – | – | – | – | – | – |
| Cc1c(C(=O)c2cnn(C)c2O)ccc(S(C)(=O)=O)c1C1=NOCC1 [Topramezone, reference compound] | – | – | – | – | – | – | – | 8 | 4 | 15 |

From US20140357487A1, “PLANTS HAVING INCREASED TOLERANCE TO HERBICIDES” (BASF SE, priority 2011, published 2014)
